Patent US20190192699A1, “NUCLEAR IMAGING AND RADIOTHERAPEUTICS AGENTS TARGETING CARBONIC ANHYDRASE IX AND USES THEREOF” (THE JOHNS HOPKINS UNIVERSITY, priority 2016, published 2019)
Where “and” joins values, the source holds several entries; their conditions need not be identical. Equal values may be shown once. Entries after “also recorded” stand apart in the source; their conditions may differ.

Assays:
SK-RC-52 xenografts = assay: Biodistribution of [111In]XYIMSR-01 and [177Lu]XYIMSR-01; assay type: in vivo, mice
Procedure: (§1) Cell Lines and Mouse Models. Animal experiments were performed in accordance with protocols approved by the Johns Hopkins Animal Care and Use Committee (ACUC). Six-week-old female NOD/SCID mice were purchased from the Animal Resource Core of the Sidney Kimmel Comprehensive Cancer Center of Johns Hopkins and were subcutaneously injected in the lower left flank or upper right flank with 1×10^6 SK-RC-52 cells in RPMI 1640 GlutaMAX™ media (Life Technologies, Frederick, Md.) supplemented with 1% fetal bovine serum (FBS). Mice were monitored for tumor size and used for SPECT/CT imaging when the size of the tumor reached 100 mm^3.
Biodistribution of [^111In]XYIMSR-01 and [^177Lu]XYIMSR-01. Mice bearing SK-RC-52 xenografts at lower left flank were injected intravenously with 740 kBq (20 μCi) of [^111In]XYIMSR-01, or [^177Lu]XYIMSR-01 in 200 μL of PBS. For competitive blocking, same tumor bearing mice were injected with 740 kBq (20 μCi) of [^111In]XYIMSR-01 and 200 nmole of 1 in 200 μL of PBS. At 1 h, 4 h, 8 h, 24 h and 48 h post-injection, mice were sacrificed by cervical dislocation and the blood was immediately collected by cardiac puncture. Heart, lungs, pancreas, spleen, fat, brain, muscle, small intestines, liver, stomach, kidney, urinary bladder, and tumor were collected. Each organ was weighed and the tissue radioactivity was measured with an automated gamma counter (1282 Compugamma CS, Pharmacia/LKBNuclear, Inc., Mt. Waverly, Vic. Australia). The percentage of injected dose per gram of tissue (% ID/g) was calculated by comparison with samples of a standard dilution of the initial dose. All measurements were corrected for radioactive decay.
Data were expressed as mean±standard deviation (SD). Prism software (GraphPAD, San Diego, Calif.) was used to determine statistical significance. Statistical significance was calculated using a paired t test. P-values […] were considered significant.

[1] = system: CAIX-expressing SK-RC-52 tumors; assay: SPECT/CT imaging of [111In]XYIMSR-01; assay type: in vivo, mice; conditions: 14.8 MBq (400 μCi) via tail vein
Procedure: as §1
SPECT/CT imaging of [^111In]XYIMSR-01. Mice harboring subcutaneous SK-RC-52 tumors with the lower left flank were injected with 14.8 MBq (400 μCi) of [^111In]XYIMSR-01 in 250 μL of PBS (pH=7.0) intravenously (tail vein). Anesthesia was then induced with 3% isofluorane and maintained at 2% isoflurane. Physiologic temperature was maintained with an external light source while the mouse was on the gantry. Imaging employed a CT-equipped Gamma Medica-Ideas SPECT scanner (Northridge, Calif.). SPECT data were acquired in 64 projections at 65 s per projection using medium energy pinhole collimators. A CT scan was performed in 512 projections at the end of each SPECT scan for anatomic co-registration. […]

[2] = 24 hr + Block (200 nmole of 1 co-injected)
[3] = 48 hr + Block (200 nmole of 1 co-injected)

**Q.** `CC(CCC(=O)N[C@@H](CC(=O)N[C@@H](CC(=O)N[C@@H](CCCCn1cc(CCCC(=O)Nc2nnc(S(N)(=O)=O)s2)nn1)C(=O)NCCOCCOCCNC(=O)CN1CCN(CC(=O)[O-])CCN(CC(=O)[O-])CCN(CC(=O)[O-])CC1)C(=O)O)C(=O)O)(c1ccc(O)cc1)c1ccc(O)cc1.[111In+3]` [[^111In]XYIMSR-01] was tested. Which “Biodistribution: Lung” value (SK-RC-52 xenografts; [2]) did it give?
**A.** The value was 0.12 ± 0.02 % ID/g.

**Q.** What about the “Biodistribution: Muscle” value (SK-RC-52 xenografts; [2]) of the same compound?
**A.** Its value is 0.02 ± 0.00 % ID/g.

**Q.** And the “Biodistribution: Pancreas” value (SK-RC-52 xenografts; [2])?
**A.** Its value is 0.03 ± 0.00 % ID/g.

**Q.** And the “Biodistribution: Small intestine” value (SK-RC-52 xenografts; [2])?
**A.** The value was 0.08 ± 0.01 % ID/g.

**Q.** What about the “Biodistribution: Spleen” value (SK-RC-52 xenografts; [2]) of the same compound?
**A.** Its value is 0.08 ± 0.01 % ID/g.

**Q.** What about the “Biodistribution: Stomach” value (SK-RC-52 xenografts; [2]) of the same compound?
**A.** The value was 0.14 ± 0.02 % ID/g.

**Q.** And the “Biodistribution: Tumor” value (SK-RC-52 xenografts; [2])?
**A.** The value was 1.41 ± 0.20 % ID/g.

**Q.** What about the Tumor/Blood ratio (SK-RC-52 xenografts; [2]) of the same compound?
**A.** The Tumor/Blood ratio was 45.2 ± 9.7.

**Q.** What about the Tumor/Kidney ratio (SK-RC-52 xenografts; [2]) of the same compound?
**A.** The Tumor/Kidney ratio was 2.1 ± 0.3.

**Q.** What about the Tumor/Muscle ratio (SK-RC-52 xenografts; [2]) of the same compound?
**A.** The Tumor/Muscle ratio was 91.4 ± 11.1.

**Q.** What about the “Biodistribution: Bladder” value (SK-RC-52 xenografts; 24 hr post-injection) of the same compound?
**A.** The value was 0.74 ± 0.17 % ID/g.

**Q.** What about the “Biodistribution: Blood” value (SK-RC-52 xenografts; 24 hr post-injection) of the same compound?
**A.** Its value is 0.15 ± 0.02 % ID/g.

**Q.** And the “Biodistribution: Brain” value (SK-RC-52 xenografts; 24 hr post-injection)?
**A.** Its value is 0.71 ± 0.85 % ID/g.

**Q.** What about the “Biodistribution: Fat” value (SK-RC-52 xenografts; 24 hr post-injection) of the same compound?
**A.** Its value is 0.28 ± 0.19 % ID/g.

**Q.** And the “Biodistribution: Heart” value (SK-RC-52 xenografts; 24 hr post-injection)?
**A.** The value was 1.16 ± 0.20 % ID/g.

**Q.** What about the “Biodistribution: Kidney” value (SK-RC-52 xenografts; 24 hr post-injection) of the same compound?
**A.** The value was 15.29 ± 1.69 % ID/g.

**Q.** And the “Biodistribution: Liver” value (SK-RC-52 xenografts; 24 hr post-injection)?
**A.** Its value is 3.02 ± 3.46 % ID/g.

**Q.** What about the “Biodistribution: Lung” value (SK-RC-52 xenografts; 24 hr post-injection) of the same compound?
**A.** The value was 11.01 ± 3.71 % ID/g.

**Q.** What about the “Biodistribution: Muscle” value (SK-RC-52 xenografts; 24 hr post-injection) of the same compound?
**A.** Its value is 0.35 ± 0.12 % ID/g.

**Q.** What about the “Biodistribution: Pancreas” value (SK-RC-52 xenografts; 24 hr post-injection) of the same compound?
**A.** Its value is 0.69 ± 0.18 % ID/g.

**Q.** And the “Biodistribution: Small intestine” value (SK-RC-52 xenografts; 24 hr post-injection)?
**A.** Its value is 2.11 ± 0.33 % ID/g.

**Q.** And the “Biodistribution: Spleen” value (SK-RC-52 xenografts; 24 hr post-injection)?
**A.** The value was 0.69 ± 0.39 % ID/g.

**Q.** And the “Biodistribution: Stomach” value (SK-RC-52 xenografts; 24 hr post-injection)?
**A.** Its value is 3.31 ± 1.25 % ID/g.

**Q.** And the “Biodistribution: Tumor” value (SK-RC-52 xenografts; 24 hr post-injection)?
**A.** The value was 25.6 % ID/g and 25.62 ± 17.67 % ID/g.

**Q.** What about the Tumor/Blood ratio (SK-RC-52 xenografts; 24 hr post-injection) of the same compound?
**A.** Its Tumor/Blood ratio is 178.1±145.4 and 178.

**Q.** And the Tumor/Kidney ratio (SK-RC-52 xenografts; 24 hr post-injection)?
**A.** Its Tumor/Kidney ratio is 1.7±1.2 and 1.7.

**Q.** And the Tumor/Muscle ratio (SK-RC-52 xenografts; 24 hr post-injection)?
**A.** The Tumor/Muscle ratio was 68.4±29.0 and 68.

**Q.** What about the “Biodistribution: Bladder” value (SK-RC-52 xenografts; [3]) of the same compound?
**A.** Its value is 0.14 ± 0.03 % ID/g.

**Q.** What about the “Biodistribution: Blood” value (SK-RC-52 xenografts; [3]) of the same compound?
**A.** Its value is 0.03 ± 0.00 % ID/g.

**Q.** What about the “Biodistribution: Brain” value (SK-RC-52 xenografts; [3]) of the same compound?
**A.** Its value is 0.03 ± 0.01 % ID/g.

**Q.** And the “Biodistribution: Fat” value (SK-RC-52 xenografts; [3])?
**A.** Its value is 0.03 ± 0.01 % ID/g.

**Q.** What about the “Biodistribution: Heart” value (SK-RC-52 xenografts; [3]) of the same compound?
**A.** Its value is 0.04 ± 0.01 % ID/g.

**Q.** And the “Biodistribution: Kidney” value (SK-RC-52 xenografts; [3])?
**A.** The value was 0.45 ± 0.09 % ID/g.

**Q.** What about the “Biodistribution: Liver” value (SK-RC-52 xenografts; [3]) of the same compound?
**A.** The value was 0.13 ± 0.04 % ID/g.

**Q.** What about the “Biodistribution: Lung” value (SK-RC-52 xenografts; [3]) of the same compound?
**A.** The value was 0.09 ± 0.02 % ID/g.

**Q.** And the “Biodistribution: Muscle” value (SK-RC-52 xenografts; [3])?
**A.** Its value is 0.02 ± 0.00 % ID/g.

**Q.** What about the “Biodistribution: Pancreas” value (SK-RC-52 xenografts; [3]) of the same compound?
**A.** Its value is 0.03 ± 0.01 % ID/g.

**Q.** And the “Biodistribution: Small intestine” value (SK-RC-52 xenografts; [3])?
**A.** The value was 0.08 ± 0.02 % ID/g.

**Q.** What about the “Biodistribution: Spleen” value (SK-RC-52 xenografts; [3]) of the same compound?
**A.** The value was 0.11 ± 0.03 % ID/g.

**Q.** What about the “Biodistribution: Stomach” value (SK-RC-52 xenografts; [3]) of the same compound?
**A.** The value was 0.14 ± 0.03 % ID/g.

**Q.** And the “Biodistribution: Tumor” value (SK-RC-52 xenografts; [3])?
**A.** The value was 1.22 ± 0.54 % ID/g.

**Q.** And the Tumor/Blood ratio (SK-RC-52 xenografts; [3])?
**A.** The Tumor/Blood ratio was 45.4 ± 13.8.

**Q.** And the Tumor/Kidney ratio (SK-RC-52 xenografts; [3])?
**A.** The Tumor/Kidney ratio was 2.7 ± 0.8.

**Q.** And the Tumor/Muscle ratio (SK-RC-52 xenografts; [3])?
**A.** Its Tumor/Muscle ratio is 75.1 ± 17.7.

**Q.** What about the “Biodistribution: Bladder” value (SK-RC-52 xenografts; 48 hr post-injection) of the same compound?
**A.** Its value is 0.38 ± 0.18 % ID/g.

**Q.** What about the “Biodistribution: Blood” value (SK-RC-52 xenografts; 48 hr post-injection) of the same compound?
**A.** Its value is 0.06 ± 0.02 % ID/g.

**Q.** And the “Biodistribution: Brain” value (SK-RC-52 xenografts; 48 hr post-injection)?
**A.** The value was 0.41 ± 0.05 % ID/g.

**Q.** And the “Biodistribution: Fat” value (SK-RC-52 xenografts; 48 hr post-injection)?
**A.** The value was 0.25 ± 0.08 % ID/g.

**Q.** What about the “Biodistribution: Heart” value (SK-RC-52 xenografts; 48 hr post-injection) of the same compound?
**A.** Its value is 0.84 ± 0.16 % ID/g.

**Q.** What about the “Biodistribution: Kidney” value (SK-RC-52 xenografts; 48 hr post-injection) of the same compound?
**A.** Its value is 8.78 ± 1.89 % ID/g.

**Q.** And the “Biodistribution: Liver” value (SK-RC-52 xenografts; 48 hr post-injection)?
**A.** The value was 1.65 ± 0.26 % ID/g.

**Q.** And the “Biodistribution: Lung” value (SK-RC-52 xenografts; 48 hr post-injection)?
**A.** Its value is 9.22 ± 1.25 % ID/g.

**Q.** And the “Biodistribution: Muscle” value (SK-RC-52 xenografts; 48 hr post-injection)?
**A.** The value was 0.39 ± 0.28 % ID/g.

**Q.** What about the “Biodistribution: Pancreas” value (SK-RC-52 xenografts; 48 hr post-injection) of the same compound?
**A.** The value was 0.59 ± 0.18 % ID/g.

**Q.** And the “Biodistribution: Small intestine” value (SK-RC-52 xenografts; 48 hr post-injection)?
**A.** The value was 1.22 ± 0.44 % ID/g.

**Q.** And the “Biodistribution: Spleen” value (SK-RC-52 xenografts; 48 hr post-injection)?
**A.** The value was 0.67 ± 0.13 % ID/g.

**Q.** And the “Biodistribution: Stomach” value (SK-RC-52 xenografts; 48 hr post-injection)?
**A.** Its value is 1.82 ± 0.43 % ID/g.

**Q.** What about the “Biodistribution: Tumor” value (SK-RC-52 xenografts; 48 hr post-injection) of the same compound?
**A.** Its value is 13.9 % ID/g and 13.92 ± 6.67 % ID/g.

**Q.** What about the Tumor/Blood ratio (SK-RC-52 xenografts; 48 hr post-injection) of the same compound?
**A.** The Tumor/Blood ratio was 212.0 ± 41.4.

**Q.** And the Tumor/Kidney ratio (SK-RC-52 xenografts; 48 hr post-injection)?
**A.** The Tumor/Kidney ratio was 1.5 ± 0.5.

**Q.** And the Tumor/Muscle ratio (SK-RC-52 xenografts; 48 hr post-injection)?
**A.** The Tumor/Muscle ratio was 52.0 ± 21.0.

**Q.** And the “SPECT/CT tumor imaging finding” value [1]?
**A.** The value was “radiotracer uptake in tumor as early as 1 h post-injection; also recorded: radiotracer uptake was observed within the tumors at 1 h post-injection; also recorded: enabled specific imaging of CAIX-expressing SK-RC-52 tumors”.
